pEC50: −log10 of the molar value.
Key:
human M4 receptor = human M4 receptor (Homo sapiens (Human), UniProt P08173); experiment: In vitro M4 functional assay (intracellular calcium, FLiPR Tetra); format: cell-based; conditions: for pEC50: CHOK1 cells stably expressing human M4 receptor and Gα16, calcium flux; for Emax: relative efficacy to an EC100 concentration of acetylcholine, read-out: M4 % RE
Method: (§1) In Vitro M4 &M2 Functional Assay
(§2) The functional activity of compounds at the M4 and M2 receptors was determined by measuring changes in the level of intracellular calcium ions caused by signalling cascades mediated by the receptor. Intracellular Calcium levels were measured using a calcium sensitive fluorescent dye, calcium 5 (Molecular Devices) The changes in fluorescence were monitored by a fluorescent imager, FLiPR Tetra (Molecular devices). Increases in intracellular calcium were readily detected upon activation of both receptors by the muscarinic receptor agonist Acetylcholine.
(§3) CHOK1 cells stably expressing human M4 or M2 receptor and co-expressing the accessory g-protein Gα16 were routinely grown as monolayers in Hams-F12 medium (Invitrogen) supplemented with 10% foetal bovine serum (FBS) (Hyclone), 500 ug/mL Geneticin and 250 ug/mL zeocin (both invitrogen) in 5% CO2 at 37° C. Once confluent is cells cryopreserved by freezing at −186° C. in freezing solution (90% FBS 10% DMSO) (Sigma-Aldrich Co.). Twenty-four hours prior to testing cells resuscitated and freezing media removed via centrifugation, cells then seeded in a black walled clear bottom 384 well plates (Corning) at a density of 15,000 cells/well in Hams F12 media supplemented with 10% FBS. On the day of assay, growth media was removed and replaced with 63 μl of Calcium 5 dye solution (Molecular Devices) in assay buffer (HBSS, 20 mM HEPES, 0.1% BSA, 1 mM Probenecid pH7.4 (Sigma-Aldrich Co.)) per well (each vial of Calcium 5 resuspended in 27 mL of assay buffer). Cells were then incubated for 45 minutes at 37° C., 5% CO2. Compound was serially diluted in DMSO (log/half log) before being diluted 1:20 with assay buffer. 7 μl of compound diluted in assay buffer was then added to cells on FLiPR tetra and fluorescence intensity measured for 5 minutes. EC50 values for compounds were determined from ten point half log scale dose-response studies and represent the concentration of compound required to […] maximal response. Curves were generated using the average of duplicate wells for each data point and analyzed using non-linear regression of four parameter dose response. Percentage Relative efficacy (RE) to an EC100 concentration of acetylcholine was reported for all compounds. The results are set out in Table 3 below in which the term “No Response” means that there was no significant response of calcium flux in the assay indicative of agonism.

human M2 receptor = human M2 receptor (Homo sapiens (Human), UniProt P08172); experiment: In vitro M2 functional assay (intracellular calcium, FLiPR Tetra); format: cell-based; conditions: for M2 EC50 / pEC50: CHOK1 cells stably expressing human M2 receptor and Gα16, calcium flux, No Response = no significant response of calcium flux indicative of agonism; for activation at 10 µM: response at 10 μM compound, relative to an EC100 concentration of acetylcholine, read-out: M2 % RE @ 10 μM
Method: as §1, §2, §3

human M2 receptor, sequence (P08172 whole entry): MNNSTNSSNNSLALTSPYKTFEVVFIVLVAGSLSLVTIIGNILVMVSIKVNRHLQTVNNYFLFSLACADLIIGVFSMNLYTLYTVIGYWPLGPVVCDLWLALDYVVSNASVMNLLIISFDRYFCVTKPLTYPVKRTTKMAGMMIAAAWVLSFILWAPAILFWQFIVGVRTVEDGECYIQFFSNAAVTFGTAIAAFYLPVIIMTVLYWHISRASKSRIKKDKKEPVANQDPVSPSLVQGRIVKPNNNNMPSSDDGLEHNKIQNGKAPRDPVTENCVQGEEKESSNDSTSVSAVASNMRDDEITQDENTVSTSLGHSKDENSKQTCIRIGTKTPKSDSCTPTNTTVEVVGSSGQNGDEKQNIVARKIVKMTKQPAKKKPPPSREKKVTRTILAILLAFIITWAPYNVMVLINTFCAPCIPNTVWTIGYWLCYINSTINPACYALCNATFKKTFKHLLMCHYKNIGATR
human M4 receptor, sequence (P08173 whole entry): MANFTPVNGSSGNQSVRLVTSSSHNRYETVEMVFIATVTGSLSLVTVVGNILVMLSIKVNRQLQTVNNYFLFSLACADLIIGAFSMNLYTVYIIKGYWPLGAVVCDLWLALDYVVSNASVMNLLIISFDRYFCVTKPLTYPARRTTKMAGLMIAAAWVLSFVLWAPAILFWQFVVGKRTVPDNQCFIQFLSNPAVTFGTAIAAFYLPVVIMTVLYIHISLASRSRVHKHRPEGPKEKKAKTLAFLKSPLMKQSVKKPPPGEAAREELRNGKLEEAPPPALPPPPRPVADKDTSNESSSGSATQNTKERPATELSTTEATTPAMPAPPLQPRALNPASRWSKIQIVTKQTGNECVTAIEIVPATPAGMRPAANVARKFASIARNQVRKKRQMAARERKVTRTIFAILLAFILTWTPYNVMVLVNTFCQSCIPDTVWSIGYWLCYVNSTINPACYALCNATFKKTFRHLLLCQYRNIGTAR

Compound | pEC50 (human M4 receptor) | Emax (human M4 receptor) | M2 EC50 (human M2 receptor) | pEC50 (human M2 receptor) | activation at 10 µM (human M2 receptor) | M2 % RE (human M2 receptor; relative efficacy to an EC100 concentration of acetylcholine)
CCOC(=O)N1CCCC(N2CCC(c3cccnc3OCC)CC2)CC1 (stereo not shown) [Example 53, Ethyl 4-[4-(2-ethoxypyridin-3-yl)piperidin-1-yl]azepane-1-carboxylate] | 7.22 | 80% | No Response |  |  | 
CCOC(=O)N1CCCC(N2CCC(c3cccnc3OCc3cc(C)no3)CC2)CC1 (stereo not shown) [Example 54, Ethyl 4-(4-{2-[(3-methyl-1,2-oxazol-5-yl)methoxy]pyridin-3-yl}piperidin-1-yl)azepane-1-carboxylate] | 7.70 | 94% | No Response |  |  | 
CCOC(=O)N1CCCC(N2CCC(c3cccnc3OC(C)C)CC2)CC1 (stereo not shown) [Example 55, Ethyl 4-{4-[2-(propan-2-yloxy)pyridin-3-yl]piperidin-1-yl}azepane-1-carboxylate] | 6.89 | 67% |  | < 5.00 | 26% | 
CCOC(=O)N1CCCC(N2CCC(c3cccn(CC#N)c3=O)CC2)CC1 (stereo not shown) [Example 56, Ethyl 4-{4-[1-(cyanomethyl)-2-oxo-1,2-dihydropyridin-3-yl]piperidin-1-yl}azepane-1-carboxylate] | 5.63 | 24% | No Response |  |  | 
CCOC(=O)N1CCCC(N2CCC(c3cccn(CC)c3=O)CC2)CC1 (stereo not shown) [Example 57, Ethyl 4-[4-(1-ethyl-2-oxo-1,2-dihydropyridin-3-yl)piperidin-1-yl]azepane-1-carboxylate] | 6.05 | 37% | No Response |  |  | 
CCOC(=O)N1CCCC(N2CCC(c3cc(Cl)cnc3OC)CC2)CC1 (stereo not shown) [Example 58, Ethyl 4-[4-(5-chloro-2-methoxypyridin-3-yl)piperidin-1-yl]azepane-1-carboxylate] | 8.70 | 95% | No Response |  |  | 
CCOC(=O)N1CCCC(N2CCC(c3nc(C)cnc3C)CC2)CC1 (stereo not shown) [Example 59, Ethyl 4-[4-(3,6-dimethylpyrazin-2-yl)piperidin-1-yl]azepane-1-carboxylate] | 6.28 | 30% | No Response |  |  | 
CCOC(=O)N1CCCC(N2CCC(c3nc(C(F)(F)F)ncc3OC)CC2)CC1 (stereo not shown) [Example 60, Ethyl 4-{4-[5-methoxy-2-(trifluoromethyl)pyrimidin-4-yl]piperidin-1-yl}azepane-1-carboxylate] | 6.74 | 68% | No Response |  |  | 
CCOC(=O)N1CCCC(N2CCC(c3cccnc3-c3cnn(C(C)C)c3)CC2)CC1 (stereo not shown) [Example 61, Ethyl 4-(4-{2-[1-(propan-2-yl)-1H-pyrazol-4-yl]pyridin-3-yl}piperidin-1-yl)azepane-1-carboxylate] | 6.82 | 66% | No Response |  |  | 
CCOC(=O)N1CCCC(N2CCC(c3cccnc3NC)CC2)CC1 (stereo not shown) [Example 62, Ethyl 4-{4-[2-(methylamino)pyridin-3-yl]piperidin-1-yl}azepane-1-carboxylate] | 6.44 | 53% | No Response |  |  | 
CCOC(=O)N1CCCC(N2CCC(c3nc(C)ncc3OC)CC2)CC1 (stereo not shown) [Example 63, Ethyl 4-[4-(5-methoxy-2-methylpyrimidin-4-yl)piperidin-1-yl]azepane-1-carboxylate] | 6.25 | 43% | No Response |  |  | 
CCOC(=O)N1CCCC(N2CCC(c3cccnc3-c3ccnn3C)CC2)CC1 (stereo not shown) [Example 64, Ethyl 4-{4-[2-(1-methyl-1H-pyrazol-5-yl)pyridin-3-yl]piperidin-1-yl}azepane-1-carboxylate] | 5.50 | 35% | No Response |  |  | 
CCOC(=O)N1CCCC(N2CCC(c3cccnc3N(C)C)CC2)CC1 (stereo not shown) [Example 65, Ethyl 4-{4-[2-(dimethylamino)pyridin-3-yl]piperidin-1-yl}azepane-1-carboxylate] | 6.72 | 87% | No Response |  |  | 
CCOC(=O)N1CCCC(N2CCC(c3cccnc3C3CC3)CC2)CC1 (stereo not shown) [Example 66, Ethyl 4-[4-(2-cyclopropylpyridin-3-yl)piperidin-1-yl]azepane-1-carboxylate] | 6.92 | 84% | No Response |  |  | 
CCOC(=O)N1CCCC(N2CCC(c3cccnc3NCC3CC3)CC2)CC1 (stereo not shown) [Example 67, Ethyl 4-(4-{2-[(cyclopropylmethyl)amino]pyridin-3-yl}piperidin-1-yl)azepane-1-carboxylate] | 6.00 | 37% | No Response |  |  | 
CCOC(=O)N1CCC(N2CCC(c3nccs3)CC2)CC1 [Example 68, Ethyl 4-[4-(1,3-thiazol-2-yl)piperidin-1-yl]piperidine-1-carboxylate] | 6.27 | 45% | No Response |  |  | 
CCOC(=O)N1CCCC(N2CCC(n3nccc3C(F)(F)F)CC2)CC1 (stereo not shown) [Example 69, Ethyl 4-{4-[5-(trifluoromethyl)-1H-pyrazol-1-yl]piperidin-1-yl}azepane-1-carboxylate] | 6.20 | 63% |  | < 5.00 | 21% | 
CCOC(=O)N1CCCC(N2CCC(c3cccnc3CC)CC2)CC1 (stereo not shown) [Example 70, Ethyl 4-[4-(2-ethylpyridin-3-yl)piperidin-1-yl]azepane-1-carboxylate] | 6.68 | 64% | No Response |  |  | 
CCOC(=O)N1CCCC(N2CCC(c3nnccc3OC)CC2)CC1 (stereo not shown) [Example 71, Ethyl 4-[4-(4-methoxypyridazin-3-yl)piperidin-1-yl]azepane-1-carboxylate] | 5.98 | 45% | No Response |  |  | 
CCOC(=O)N1CCC(N2CCC(c3cccc(OCC)n3)CC2)CC1 [Example 72, Ethyl 4-[4-(6-ethoxypyridin-2-yl)piperidin-1-yl]piperidine-1-carboxylate] | 6.57 | 63% |  | 5.69 |  | 20%
CCOC(=O)N1CCCC(N2CCC(c3cccnc3-c3cnn(C)c3)CC2)CC1 (stereo not shown) [Example 73, Ethyl 4-{4-[2-(1-methyl-1H-pyrazol-4-yl)pyridin-3-yl]piperidin-1-yl}azepane-1-carboxylate] | 6.19 | 53% | No Response |  |  | 
CCOC(=O)N1CCCC(N2CCC(c3ncccn3)CC2)CC1 (stereo not shown) [Example 74, Ethyl 4-[4-(pyrimidin-2-yl)piperidin-1-yl]azepane-1-carboxylate] | 5.98 | 61% |  | < 5.00 | 20% | 
CCOC(=O)N1CCCC(N2CCC(c3cncnc3C)CC2)CC1 (stereo not shown) [Example 75, Ethyl 4-[4-(4-methylpyrimidin-5-yl)piperidin-1-yl]azepane-1-carboxylate] | 6.00 | 52% | No Response |  |  | 
CCOC(=O)N1CCCC(N2CCC(c3cccnc3OCc3cscn3)CC2)CC1 (stereo not shown) [Example 76, Ethyl 4-{4-[2-(1,3-thiazol-4-ylmethoxy)pyridin-3-yl]piperidin-1-yl}azepane-1-carboxylate] | 7.66 | 84% | No Response |  |  | 
CCOC(=O)N1CCCC(N2CCC(c3cccnc3CC(C)C)CC2)CC1 (stereo not shown) [Example 77, Ethyl 4-{4-[2-(2-methylpropyl)pyridin-3-yl]piperidin-1-yl}azepane-1-carboxylate] | 6.17 | 58% | No Response |  |  | 
COC(=O)N1CCC(CN2CCC(n3nc(C)cc3C)C2)CC1 (stereo not shown) [Example 78, Methyl 4-{[3-(3,5-dimethyl-1H-pyrazol-1-yl)pyrrolidin-1-yl]methyl}piperidine-1-carboxylate] | 5.57 | 36% | No Response |  |  | 
CCOC(=O)N1CCC(CN2CCC(n3nc(C)cc3C)C2)CC1 (stereo not shown) [Example 79, Ethyl 4-{[3-(3,5-dimethyl-1H-pyrazol-1-yl)pyrrolidin-1-yl]methyl}piperidine-1-carboxylate] | 6.47 | 50% | No Response |  |  | 
CCOC(=O)N1CCCC(N2CCC(c3cccnc3-c3ncco3)CC2)CC1 (stereo not shown) [Example 80, Ethyl 4-{4-[2-(1,3-oxazol-2-yl)pyridin-3-yl]piperidin-1-yl}azepane-1-carboxylate] | 6.07 | 43% | No Response |  |  | 
